In patent US10604555B2, “GIP derivatives and uses thereof” (priority 2018, dated 2020):
Marks after values point to notes of the source that are not given here.

How the values were obtained:
[1] = test system: diet-induced obese (DIO) mice; assay: Sub-chronic in vivo study in obese mice: IPGTT (intraperitoneal glucose tolerance test); set-up: species or system C57BL/6J mice; conditions: for effect on glucose tolerance (in words): DIO mice, Tables 6-8, compound 47 2 nmol/kg, GIP derivatives 30 nmol/kg; for iAUC, IPGTT (mM*min) Day 15: i.p. glucose 2 g/kg, 4 h fasted, baseline subtracted AUC, mean ± SEM
Text: (§1) The purpose of this example is to assess the in vivo effect of the GIP derivatives of the present invention alone and in combination with a GLP-1 receptor agonist on food intake, body weight, and glucose tolerance in diet-induced obese (DIO) mice. The GLP-1 receptor agonist used for this example was a semaglutide-like molecule that has the same pharmacological properties as semaglutide, but a slightly different structure. The compound may be synthesised using methods known in the art, e.g. as described by methods of present Example 1 or as described in WO 2006/097537, example 4.
(§2) The animals were treated once daily with the GLP-1 receptor agonist (compound no. 47) and/or a GIP derivative of the present invention exemplified by compound no.'s 5, 25 and 31, to assess weight loss, efficacy and glucose tolerance. Animals and Diet
(§3) All animal protocols were approved by an Institutional Animal Care and Use Committee and Ethical Review Committee of Novo Nordisk. Animals were housed according to Novo Nordisk rodent housing standards, and were given ad libitum access to food and water under controlled lighting (12 h:12 h light/dark cycle; lights off 18:00-06:00), temperature (23±2° C.) and relative humidity (50±20%) conditions. DIO male C57BL/6J mice maintained on a high fat diet (45% kcal fat, RD12451, Research Diets, New Brunswick, N.J., USA) for 22 weeks were obtained from Charles River (France). Upon arrival, the mice were single-housed (one mouse per cage) and allowed to acclimate to their new environment for two weeks prior to the start of treatment.
(§4) Prior to initiation of the study, animals were single-housed and acclimated to handling for 7 days. The DIO mice were distributed into groups (n=8/group) such that statistical variations in the mean and standard deviations of fat mass and body weight were minimized between groups. Animals were dosed once daily, subcutaneously with either vehicle or test compound.
(§5) All compounds in the study were formulated in the following buffer: 50 mM phosphate; 70 mM sodium chloride; 0.05% polysorbate 80, pH 7.4. Dosing solutions were formulated in glass vials and stored at 2-8° C. Dosing solutions were brought to room temperature before dosing and returned to 2-8° C. after dosing.
On the day of the glucose tolerance test (day 15), animals were fasted for 4 h. Food was removed and animals were transferred to fresh cages. Animals had access to water but not to food. Tail blood glucose levels were measured and mice were injected (t=0) with an intra-peritoneal (i.p.) glucose load of 2 g/kg (200 mg/ml glucose solution, dose volume 10 ml/kg). Tail blood glucose levels were measured at times 0, 15, 30, 60, 90, 120 minutes following the i.p. glucose load. Stratification of the animals during the IPGTT was such that for example two mice from group 1 are dosed followed by two mice from group 2, 3, 4, before the next two mice from group 1, 2, 3 etc. were handled. This was to allow for equal distribution of “time of day” throughout all groups.

[2] = test system: diet-induced obese (DIO) mice; assay: Sub-chronic in vivo study in obese mice: food intake and body weight; set-up: species or system C57BL/6J mice; conditions: for effect on body weight (in words) / effect on food intake (in words) / Cumulative food intake (kcals) Day 14: DIO mice; for effect on body weight (in words) / effect on food intake (in words): Tables 6-8, compound 47 2 nmol/kg, GIP derivatives 30 nmol/kg; for Cumulative food intake (kcals) Day 14 / Absolute BW (grams) Day 14 / Change in BW (%) Day 14: once daily s.c.; for Cumulative food intake (kcals) Day 14 / Absolute BW (grams) Day 0 / Absolute BW (grams) Day 14 / Change in BW (%) Day 14: mean ± SEM; for Absolute BW (grams) Day 0: Day 0 (before treatment)
Text: as §1, §2, §3, §4, §5
Body weight (BW) and food intake were measured immediately prior to dosing each day. The average starting body weight of the mice prior to start of treatment was 45.2±0.2 grams.

[3] = Study 1, 47 2 nmol/kg and/or 5 30 nmol/kg
[4] = Study 2, 47 2 nmol/kg and/or 25 30 nmol/kg
[5] = Study 3, 47 2 nmol/kg, 31 30 nmol/kg
[6] = Study 2, compound no. 47 2 nmol/kg and/or compound no. 25 30 nmol/kg

Row | Substance | effect on glucose tolerance (in words) [1] | iAUC, IPGTT (mM*min) Day 15 [1, 3] | iAUC, IPGTT (mM*min) Day 15 [1, 4] | iAUC, IPGTT (mM*min) Day 15 [1, 5] | effect on body weight (in words) [2] | effect on food intake (in words) [2] | Cumulative food intake (kcals) Day 14 ([2]; Study 1, compound no. 47 2 nmol/kg and/or compound no. 5 30 nmol/kg) | Absolute BW (grams) Day 0 ([2]; Study 1) | Absolute BW (grams) Day 14 [2, 3] | Change in BW (%) Day 14 [2, 3] | Cumulative food intake (kcals) Day 14 [2, 6] | Absolute BW (grams) Day 0 ([2]; Study 2) | Absolute BW (grams) Day 14 [2, 4] | Change in BW (%) Day 14 [2, 4] | Cumulative food intake (kcals) Day 14 ([2]; Study 3, compound no. 47 2 nmol/kg and GIP compound no. 31 30 nmol/kg) | Absolute BW (grams) Day 0 ([2]; Study 3) | Absolute BW (grams) Day 14 [2, 5] | Change in BW (%) Day 14 [2, 5]
1 | N^6,26-{18-[N-(17-carboxyheptadecanoyl)-D-γ-glutamyl]-10-oxo-3,6,12,15-tetraoxa-9,18-diazaoctadecanoyl}-[8-(2-amino-2-propanoic acid), 34-L-arginine]human glucagon-like peptide 1(7-37) [Compound 47] | improvement in glucose tolerance | 543 ± 94 ^a mM*min | 503 ± 55 ^b mM*min | 1441 ± 135 ^c mM*min | body weight loss | reduction in food intake | 146.3 ± 6.8 ^b kcals | 44.4 ± 1.0 ^a grams | 38.5 ± 1.2 ^bc grams | −13.2 ± 3.3 ^c % | 134.9 ± 4.3 ^b kcals | 40.2 ± 1.2 ^a grams | 34.8 ± 1.2 ^b grams | −13.6 ± 0.7 ^c % | 140.2 ± 6.7 ^b kcals | 45.2 ± 1.4 ^a grams | 40.0 ± 1.3 ^a grams | −11.2 ± 1.6 ^c %
2 | N{1}-acetyl,N{Epsilon-24}-[(4S)-4-carboxy-4-[[(4S)-4-carboxy-4-[[(4S)-4-carboxy-4-[[4-[(19-carboxynonadecanoylamino)methyl]cyclohexanecarbonyl]amino]butanoyl]-amino]butanoyl]amino]butanoyl]-[D-Tyr1,Nle14,Arg18,Aib20,Lys24]-hGIP(1-31) [Compound 25] | improved glucose tolerance |  | 518 ± 36 ^b mM*min |  | minor body weight loss | minor effect on food intake |  |  |  |  | 170.2 ± 7.3 ^b kcals | 41.1 ± 1.0 ^a grams | 38.8 ± 1.0 ^a grams | −5.6 ± 0.8 ^b % |  |  |  | 
